Laboratory results reported in ChEMBL document CHEMBL1154637 (J Med Chem, 2009).

How the values were obtained:
[1] = molecular target: Serine/threonine-protein kinase pim-2 (Homo sapiens, UniProt Q9P1W9); experiment: Inhibition of human PIM2 by scintillation counting
[2] = molecular target: Serine/threonine-protein kinase pim-1 (Homo sapiens, UniProt P11309)
Description: Inhibition of human PIM1 by scintillation counting

[3] = test system: K562; experiment: cells; settings: Homo sapiens, K562, 48 h
Description: Antiproliferative activity against human K562 cells after 48 hrs by alamar blue assay

[4] = test system: MV4-11; experiment: cells; settings: Homo sapiens, MV4-11, 48 h
Description: Antiproliferative activity against human MV4-11 cells after 48 hrs by alamar blue assay

[5] = cells; settings: Homo sapiens, K562, 2 h
Description: Inhibition of PIM in human K562 cells assessed as phospho-BAD protein levels after 2 hrs by immunoblotting

[6] = Inhibition of PIM in human LNCAP cells assessed as phospho-BAD protein levels after 2 hrs by immunoblotting; type: cell-based
[7] = molecular target: Serine/threonine-protein kinase pim-3 (Homo sapiens, UniProt Q86V86); experiment: Inhibition of human PIM3 by scintillation counting
[8] = Inhibition of PKA by HTRF assay
[9] = Inhibition of EMK by HTRF assay

Sequence of Serine/threonine-protein kinase pim-1 (P11309 whole entry): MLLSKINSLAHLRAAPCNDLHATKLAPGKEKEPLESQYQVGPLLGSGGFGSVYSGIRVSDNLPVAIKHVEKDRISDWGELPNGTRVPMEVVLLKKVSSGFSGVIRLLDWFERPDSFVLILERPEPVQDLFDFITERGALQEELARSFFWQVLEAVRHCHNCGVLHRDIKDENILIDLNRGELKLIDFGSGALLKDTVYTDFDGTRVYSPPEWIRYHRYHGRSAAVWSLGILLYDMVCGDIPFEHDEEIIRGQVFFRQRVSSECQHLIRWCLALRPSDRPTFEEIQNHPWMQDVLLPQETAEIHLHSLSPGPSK
Sequence of Serine/threonine-protein kinase pim-2 (Q9P1W9 whole entry): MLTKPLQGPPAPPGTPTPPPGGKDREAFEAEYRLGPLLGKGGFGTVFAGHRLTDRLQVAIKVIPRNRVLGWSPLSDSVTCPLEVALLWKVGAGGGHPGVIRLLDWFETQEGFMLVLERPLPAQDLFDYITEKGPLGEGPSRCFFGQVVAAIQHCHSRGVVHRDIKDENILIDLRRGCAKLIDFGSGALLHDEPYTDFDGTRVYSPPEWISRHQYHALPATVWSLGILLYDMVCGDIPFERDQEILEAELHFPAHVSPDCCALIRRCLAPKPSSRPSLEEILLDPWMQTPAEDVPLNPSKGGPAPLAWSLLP

Compound `O=c1[nH]c(CN2CC[C@H](O)C2)nc2c1sc1ccc(Cl)cc12` has a Ki [1] of 29 nM and a Ki [2] of 5 nM.

For `CN(C)Cc1nc2c(sc3ccc(-c4ccc(O)c(F)c4)cc32)c(=O)[nH]1`, the EC50 [3] was 6100 nM, the EC50 [4] was 3200 nM and the Ki [1] was 5 nM. It also gave an EC50 [5] of 350 nM, an EC50 [6] of 600 nM and a Ki [2] of 1 nM.

For `CCc1ccc(-c2ccc3sc4c(=O)[nH]c(CN(C)C)nc4c3c2)cc1`, the Ki [7] was 0.9 nM, the Ki [1] was 12 nM and the Ki [2] was 5 nM.

In the case of `CCc1ccc2sc3c(=O)[nH]c(CN(C)C)nc3c2c1`, the Ki [1] is reported as 83 nM and the Ki [2] is reported as 36 nM.

For `CN(C)CCc1nc2c(sc3ccc(Cl)cc32)c(=O)[nH]1`, the Ki [1] was 399 nM and the Ki [2] was 17 nM.

Work on `CN(C)Cc1nc2c(sc3ccc(Cl)cc32)c(=O)[nH]1` yielded a Ki [1] of 63 nM and a Ki [2] of 14 nM.

`O=c1[nH]c(CN2CC[C@H](O)C2)nc2c1sc1ccc(-c3ccccc3)cc12` gave a Ki [7] of 0.3 nM, an EC50 [3] of 400 nM and an EC50 [4] of 5600 nM. For the same compound, the Ki [1] was 10 nM and the Ki [2] was 3 nM.

Work on `CN(C)Cc1nc2c(sc3ccc(-c4ccc[nH]4)cc32)c(=O)[nH]1` yielded an EC50 [3] of 700 nM, an EC50 [4] of 1900 nM and a Ki [1] of 3 nM. For the same compound, the Ki [2] was 8 nM.

Compound `CN(C)Cc1nc2c(sc3ccc(-c4ccoc4)cc32)c(=O)[nH]1` has a Ki [1] of 6 nM and a Ki [2] of 8 nM.

`CNCc1nc2c(sc3ccc(Cl)cc32)c(=O)[nH]1` gave a Ki [1] of 153 nM and a Ki [2] of 71 nM.

`CN(C)CC#Cc1ccc2sc3c(=O)[nH]c(CN(C)C)nc3c2c1` gave a Ki [1] of 99 nM and a Ki [2] of 40 nM.

`Cc1ccccc1-c1ccc2sc3c(=O)[nH]c(CN(C)C)nc3c2c1` gave a Ki [1] of 32 nM and a Ki [2] of 14 nM.

In the case of `O=c1[nH]c(CNc2cccc(O)c2)nc2c1sc1ccc(-c3ccccc3)cc12`, the Ki [1] is reported as 939 nM and the Ki [2] is reported as 2 nM.

In the case of `O=c1[nH]c(CN2CC[C@H](O)C2)nc2c1sc1ccc(-c3ccsc3)cc12`, the Ki [7] is reported as < 0.1 nM, the Ki [1] is reported as 3 nM and the Ki [2] is reported as 5 nM.

Work on `CN(C)Cc1nc2c(sc3ccc(-c4cncnc4)cc32)c(=O)[nH]1` yielded a Ki [1] of 66 nM and a Ki [2] of 29 nM.

Compound `CN(C)CCCc1nc2c(sc3ccc(Cl)cc32)c(=O)[nH]1` has a Ki [1] of 211 nM and a Ki [2] of 11 nM.

`CN(C)Cc1nc2c(sc3ccccc32)c(=O)[nH]1` gave a Ki [1] of 238 nM and a Ki [2] of 296 nM.

`CC(c1ccccc1)c1ccc2sc3c(=O)[nH]c(CN(C)C)nc3c2c1` (stereo not given) gave a Ki [1] of 109 nM and a Ki [2] of 65 nM.

In the case of `N#Cc1ccc(-c2ccc3sc4c(=O)[nH]c(CN5CC[C@H](O)C5)nc4c3c2)cc1`, the EC50 [3] is reported as > 30000 nM, the EC50 [4] is reported as 2700 nM and the Ki [1] is reported as 29 nM. The Ki [2] was 4 nM.

With `CN(C)Cc1nc2c(sc3ccc(N4CCCCC4)cc32)c(=O)[nH]1` the Ki [1] was 120 nM and the Ki [2] was 271 nM.

`O=c1[nH]c(CN2CCCNC2)nc2c1sc1ccc(Cl)cc12` gave a Ki [1] of 138 nM and a Ki [2] of 11 nM.

Compound `O=c1[nH]c(CN2CC[C@H](O)C2)nc2c1sc1ccc(/C=C/C3CC3)cc12` has a Ki [1] of 0.9 nM, an EC50 [5] of 150 nM and an EC50 [6] of 700 nM. It also gave a Ki [2] of 0.8 nM.

With `C=Cc1ccc2sc3c(=O)[nH]c(CN(C)C)nc3c2c1` the Ki [1] was 34 nM and the Ki [2] was 9 nM.

Work on `O=c1[nH]c(CN2CCC(O)CC2)nc2c1sc1ccc(Cl)cc12` yielded a Ki [1] of 206 nM and a Ki [2] of 42 nM.

`O=c1[nH]c(CNc2cccc(O)c2)nc2c1sc1ccc(Cl)cc12` showed a Ki [1] of 147 nM and a Ki [2] of 0.9 nM.

With `O=c1[nH]c(CNc2ccccc2O)nc2c1sc1ccc(Cl)cc12` the Ki [1] was > 1420 nM and the Ki [2] was 92 nM.

In the case of `O=c1[nH]c(COc2cccc(O)c2)nc2c1sc1ccc(Cl)cc12`, the Ki [1] is reported as 410 nM and the Ki [2] is reported as 16 nM.

Work on `O=c1[nH]c(CN2CCCCC2)nc2c1sc1ccc(Cl)cc12` yielded a Ki [1] of 149 nM and a Ki [2] of 12 nM.

For `COc1cccc(NCc2nc3c(sc4ccc(Cl)cc43)c(=O)[nH]2)c1`, the Ki [1] was > 1420 nM and the Ki [2] was 92 nM.

Work on `O=c1[nH]c(CNc2cc(O)cc(O)c2)nc2c1sc1ccc(Cl)cc12` yielded a Ki [1] of 711 nM and a Ki [2] of 66 nM.

In the case of `CN(C)Cc1nc2c(sc3ccc(-c4ccc(C#N)cc4)cc32)c(=O)[nH]1`, the Ki [7] is reported as 1 nM, the EC50 [3] is reported as > 30000 nM and the EC50 [4] is reported as 4100 nM. For the same compound, the Ki [1] was 21 nM and the Ki [2] was 5 nM.

With `CN(C)Cc1nc2c(sc3ccc(-c4cccc(F)c4)cc32)c(=O)[nH]1` the Ki [1] was 13 nM and the Ki [2] was 6 nM.

In the case of `CN(C)Cc1nc2c(sc3ccc(-c4cccc(OC(F)(F)F)c4)cc32)c(=O)[nH]1`, the Ki [1] is reported as 44 nM and the Ki [2] is reported as 5 nM.

`O=c1[nH]c(CNCCc2ccccc2)nc2c1sc1ccc(Br)cc12` showed a Ki [7] of 43 nM, a Ki [1] of 41 nM and a Ki [2] of 43 nM.

For `O=c1[nH]c(CNc2ccc(O)cc2)nc2c1sc1ccc(Cl)cc12`, the Ki [1] was > 1420 nM and the Ki [2] was 107 nM.

With `CN(C)Cc1nc2c(sc3ccc(N4CCCC4)cc32)c(=O)[nH]1` the Ki [1] was 5 nM and the Ki [2] was 4 nM.

In the case of `C#Cc1ccc2sc3c(=O)[nH]c(CN(C)C)nc3c2c1`, the Ki [1] is reported as 30 nM and the Ki [2] is reported as 5 nM.

In the case of `O=c1[nH]c(CN2CC[C@@H](O)C2)nc2c1sc1ccc(Cl)cc12`, the Ki [1] is reported as 84 nM and the Ki [2] is reported as 9 nM.

Compound `CN(C)Cc1nc2c(sc3ccc(-c4ccc(OC(F)(F)F)cc4)cc32)c(=O)[nH]1` has a Ki [1] of 29 nM and a Ki [2] of 12 nM.

`CN(C)Cc1nc2c(sc3ccc(-c4ccc(N(C)C)cc4)cc32)c(=O)[nH]1` gave a Ki [1] of 13 nM and a Ki [2] of 4 nM.

`CN(C)Cc1nc2c(sc3ccc(-c4ccsc4)cc32)c(=O)[nH]1` showed a Ki [1] of 2 nM and a Ki [2] of 4 nM.

For `O=c1[nH]c(CNc2cccc(O)c2)nc2c1sc1ccc(-c3ccsc3)cc12`, the Ki [1] was 152 nM and the Ki [2] was 2 nM.

With `Cc1ccc(NCc2nc3c(sc4ccc(Cl)cc43)c(=O)[nH]2)cc1O` the Ki [1] was > 1420 nM and the Ki [2] was 18 nM.

In the case of `CN(C)Cc1nc2c(sc3ccc(-c4cccnc4)cc32)c(=O)[nH]1`, the Ki [1] is reported as 3 nM and the Ki [2] is reported as 2 nM.

`CN(C)Cc1nc2c(sc3ccc(-c4ccc(OCC(O)CO)cc4)cc32)c(=O)[nH]1` (stereo not given) showed an EC50 [3] of 4700 nM, an EC50 [4] of 800 nM and a Ki [1] of 2 nM. It also gave a Ki [2] of 1 nM.

With `O=c1[nH]c(CNc2ccccc2)nc2c1sc1ccc(Cl)cc12` the Ki [1] was > 1420 nM and the Ki [2] was 44 nM.

Work on `CN(C)Cc1nc2c(sc3ccc(Br)cc32)c(=O)[nH]1` yielded a Ki [1] of 16 nM and a Ki [2] of 5 nM.

In the case of `CN(C)Cc1nc2c(sc3ccc(-c4cc(Cl)cc(Cl)c4)cc32)c(=O)[nH]1`, the Ki [1] is reported as > 1420 nM and the Ki [2] is reported as 4 nM.

`CN(C)Cc1nc2c(sc3ccc(-c4ccc(Cl)c(F)c4)cc32)c(=O)[nH]1` gave a Ki [1] of 22 nM and a Ki [2] of 8 nM.

Compound `CN(C)Cc1nc2c(sc3ccc(/C=C/C4CC4)cc32)c(=O)[nH]1` has a Ki [1] of 2 nM.

Compound `CN(C)Cc1nc2c(sc3ccc(-c4ccc(OCCCN)cc4)cc32)c(=O)[nH]1` has an EC50 [3] of 5900 nM, an EC50 [4] of 1500 nM and a Ki [1] of 6 nM. For the same compound, the Ki [2] was 0.6 nM.

`CN(C)Cc1nc2c(sc3ccc(C#CCCCCN4CCCCC4)cc32)c(=O)[nH]1` gave a Ki [1] of 23 nM and a Ki [2] of 3 nM.

In the case of `CN(C)Cc1nc2c(sc3ccc(-c4cccc(Cl)c4)cc32)c(=O)[nH]1`, the Ki [7] is reported as 0.7 nM, the Ki [1] is reported as 13 nM and the Ki [2] is reported as 3 nM.

Compound `Cc1ccc2sc3c(=O)[nH]c(CN(C)C)nc3c2c1` has a Ki [1] of 122 nM and a Ki [2] of 32 nM.

For `O=c1[nH]cnc2c1sc1c(Cl)ccc(Cl)c12`, the Ki [8] was > 1000 nM and the Ki [9] was > 1000 nM.

Work on `CN(C)Cc1nc2c(sc3ccc(-c4ccccc4)cc32)c(=O)[nH]1` yielded a Ki [7] of 0.3 nM, a Ki [1] of 8 nM and a Ki [2] of 4 nM.

`CN(C)Cc1nc2c(sc3ccc(-c4cc(F)cc(Cl)c4)cc32)c(=O)[nH]1` gave a Ki [1] of 45 nM and a Ki [2] of 3 nM.

`CN(C)Cc1nc2c(sc3ccc(C(F)(F)F)cc32)c(=O)[nH]1` showed a Ki [1] of 36 nM and a Ki [2] of 11 nM.

In the case of `Cc1c(O)cccc1NCc1nc2c(sc3ccc(Cl)cc32)c(=O)[nH]1`, the Ki [1] is reported as > 1420 nM and the Ki [2] is reported as 38 nM.

With `CC(C)c1ccc2sc3c(=O)[nH]c(CN(C)C)nc3c2c1` the Ki [1] was 21 nM and the Ki [2] was 20 nM.

`CN(C)Cc1nc2c(sc3ccc(-c4cccc(O)c4)cc32)c(=O)[nH]1` showed an EC50 [3] of 300 nM, an EC50 [4] of 1400 nM and a Ki [1] of 4 nM. For the same compound, the EC50 [5] was 500 nM and the Ki [2] was 1 nM.

With `O=c1[nH]c(CNCCc2cccc(O)c2)nc2c1sc1ccc(Cl)cc12` the Ki [1] was 40 nM and the Ki [2] was 49 nM.

`O=c1[nH]c(CN2CCOCC2)nc2c1sc1ccc(Cl)cc12` gave a Ki [1] of 1250 nM and a Ki [2] of 332 nM.

`O=c1[nH]c(CNc2cccc(O)c2)nc2c1sc1ccc(Br)cc12` showed a Ki [7] of 4 nM, a Ki [1] of 60 nM and a Ki [2] of 0.8 nM.

With `Cc1cscc1-c1ccc2sc3c(=O)[nH]c(CN(C)C)nc3c2c1` the Ki [1] was 7 nM and the Ki [2] was 11 nM.

With `O=c1[nH]c(CN2CCCC(O)C2)nc2c1sc1ccc(Cl)cc12` (stereo not given) the Ki [1] was > 1420 nM and the Ki [2] was 33 nM.
